# Test results as given in patent US20190262330A1, “Method of Treating Hepatocellular Carcinoma Using N-(4-(6,7-dimethoxyquinolin-4-yloxy)phenyl)-N′-(4-fluorophenyl)cyclopropane-1,1-dicarboxamide, (2S)-hydroxybutanedioate” (Exelixis, Inc., priority 2017, published 2019).
# Columns and labels:
# CYP3A4 [1] = experiment: In vitro CYP induction; type: in vitro ADME
# CYP1A2 [2] = target: T1, CYP1A2 (Homo sapiens, UniProt P05177); experiment: In vitro CYP inhibition; type: in vitro ADME
# CYP3A4 [3] = target: T2, CYP3A4 (Homo sapiens, UniProt P08684); experiment: In vitro CYP inhibition; type: in vitro ADME
# T2 sequence (P08684 whole entry): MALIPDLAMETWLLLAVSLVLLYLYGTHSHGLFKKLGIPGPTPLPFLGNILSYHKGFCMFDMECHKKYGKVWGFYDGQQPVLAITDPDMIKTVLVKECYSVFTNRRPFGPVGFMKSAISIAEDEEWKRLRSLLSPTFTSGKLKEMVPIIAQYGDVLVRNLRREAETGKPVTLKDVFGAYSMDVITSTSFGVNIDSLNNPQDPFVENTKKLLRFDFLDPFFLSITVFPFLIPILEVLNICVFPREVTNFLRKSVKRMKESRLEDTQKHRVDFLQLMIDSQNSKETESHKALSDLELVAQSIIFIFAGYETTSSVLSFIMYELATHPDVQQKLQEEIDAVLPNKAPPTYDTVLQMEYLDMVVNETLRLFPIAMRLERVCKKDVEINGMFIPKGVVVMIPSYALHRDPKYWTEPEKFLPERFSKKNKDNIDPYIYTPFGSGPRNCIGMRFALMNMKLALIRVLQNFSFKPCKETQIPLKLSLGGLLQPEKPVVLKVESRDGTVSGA
# CYP2B6 = experiment: In vitro CYP induction; type: in vitro ADME
# female rats = experiment: 14-day general toxicology study in female rats; type: in vivo, rat; settings: 5 mg/kg/day for 14 days
# [4] = Excretion of 14C-cabozantinib radioactivity in healthy subjects; type: in vivo, human; settings: 72 hour collection
# Description: Approximately 81% of the total administered radioactivity was recovered within a 48-day collection period following a single 140 mg dose of an investigational ^14C-cabozantinib formulation in healthy subjects. Approximately 54% was recovered in feces and 27% in urine.
# CYP1A2 [5] = target: T1, CYP1A2; experiment: In vitro metabolic pathways; type: in vitro ADME
# [6] = tested on: advanced hepatocellular carcinoma; settings: from study entry; cited from earlier work
# MER = MER (Homo sapiens, UniProt Q12866); experiment: In vitro biochemical and/or cellular kinase assays
# Chain of MER (Q12866 21-999): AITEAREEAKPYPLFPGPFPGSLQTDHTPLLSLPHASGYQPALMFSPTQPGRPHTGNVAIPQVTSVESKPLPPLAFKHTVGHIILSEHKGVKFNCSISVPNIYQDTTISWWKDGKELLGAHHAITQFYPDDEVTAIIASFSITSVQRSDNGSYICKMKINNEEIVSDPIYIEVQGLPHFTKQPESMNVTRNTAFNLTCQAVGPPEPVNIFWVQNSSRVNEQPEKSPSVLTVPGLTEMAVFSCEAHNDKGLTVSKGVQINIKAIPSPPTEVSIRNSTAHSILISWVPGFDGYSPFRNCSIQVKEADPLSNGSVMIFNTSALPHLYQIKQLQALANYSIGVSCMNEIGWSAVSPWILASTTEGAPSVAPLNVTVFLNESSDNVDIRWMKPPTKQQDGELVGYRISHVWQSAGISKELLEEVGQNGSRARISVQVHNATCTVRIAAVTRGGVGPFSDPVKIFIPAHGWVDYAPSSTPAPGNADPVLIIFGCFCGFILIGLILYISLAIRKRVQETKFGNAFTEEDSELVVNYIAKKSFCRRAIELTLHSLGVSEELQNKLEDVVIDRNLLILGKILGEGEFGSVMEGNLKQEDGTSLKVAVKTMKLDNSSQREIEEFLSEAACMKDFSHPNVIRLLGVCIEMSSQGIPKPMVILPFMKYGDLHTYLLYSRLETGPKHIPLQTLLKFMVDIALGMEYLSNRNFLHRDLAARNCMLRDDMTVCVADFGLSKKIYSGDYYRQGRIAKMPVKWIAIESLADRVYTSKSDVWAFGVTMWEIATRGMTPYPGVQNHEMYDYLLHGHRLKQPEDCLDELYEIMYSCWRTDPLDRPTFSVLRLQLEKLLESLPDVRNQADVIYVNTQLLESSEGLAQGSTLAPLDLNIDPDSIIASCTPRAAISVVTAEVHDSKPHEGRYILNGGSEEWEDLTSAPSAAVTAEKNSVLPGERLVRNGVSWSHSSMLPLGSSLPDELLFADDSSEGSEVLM
# CYP3A4 [7] = experiment: Drug interaction with strong CYP3A4 inducer rifampin; type: in vivo, human; settings: rifampin 600 mg daily for 31 days, healthy subjects
# ROS1 = ROS1 (Homo sapiens, UniProt P08922); experiment: In vitro biochemical and/or cellular kinase assays
# CYP3A4 [8] = target: T2, CYP3A4; experiment: Drug interaction with strong CYP3A4 inhibitor ketoconazole; type: in vivo; set-up: from tissue; settings: ketoconazole 400 mg daily for 27 days, healthy subjects
# [9] = tested on: female rats and offspring; experiment: Pre- and postnatal study in rats; settings: oral, gestation day 10 through postnatal day 20
# TIE-2 = TIE-2 (Homo sapiens, UniProt Q02763); experiment: In vitro biochemical and/or cellular kinase assays
# CYP2C19 [10] = experiment: In vitro CYP induction; type: in vitro ADME
# [11] = Population pharmacokinetic analysis in specific populations; type: in vivo, human; settings: integrated population pharmacokinetic analysis
# Description: The pooled analysis included 391 patients with HCC of whom […] were categorized as having normal liver function, mild, and moderate hepatic impairment, respectively.
# [12] = tested on: previously treated advanced HCC; experiment: CELESTIAL secondary analysis: target lesion size, serum AFP, time to progression; type: in vivo, human
# Description: Patients must have received prior sorafenib and were allowed up to 2 lines of prior systemic therapy for HCC. Change in the sum of target lesion diameters (SOD) from baseline was determined every 8 weeks by investigator. Best percentage change in SOD was defined as the maximum reduction in SOD at any postbaseline timepoint. Serum AFP levels were measured centrally at baseline and every 8 weeks on the same schedule as tumor assessments. TTP was defined as the time from randomization to radiological progression or clinical deterioration and was determined retrospectively.
# CYP2C9 [13] = target: CYP2C9 (Homo sapiens, UniProt P11712); experiment: In vitro CYP inhibition; type: in vitro ADME
# Chain of CYP2C9 (Homo sapiens, UniProt P11712) (P11712 whole entry): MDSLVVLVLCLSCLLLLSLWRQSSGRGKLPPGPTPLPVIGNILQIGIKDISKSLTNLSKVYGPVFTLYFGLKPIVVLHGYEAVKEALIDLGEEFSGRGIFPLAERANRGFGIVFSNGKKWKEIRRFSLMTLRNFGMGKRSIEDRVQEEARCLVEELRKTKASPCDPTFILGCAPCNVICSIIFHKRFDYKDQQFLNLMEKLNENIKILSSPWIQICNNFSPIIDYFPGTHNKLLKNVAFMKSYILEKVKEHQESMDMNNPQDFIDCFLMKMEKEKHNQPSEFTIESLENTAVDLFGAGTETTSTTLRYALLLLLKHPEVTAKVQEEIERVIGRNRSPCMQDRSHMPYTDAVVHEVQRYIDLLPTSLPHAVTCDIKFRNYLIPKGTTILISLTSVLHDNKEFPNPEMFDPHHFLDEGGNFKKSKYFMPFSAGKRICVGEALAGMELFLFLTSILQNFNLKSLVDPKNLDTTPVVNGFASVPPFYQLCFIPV
# [14] = tested on: murine models of hepatocellular carcinoma; settings: mouse, in vivo; cited from earlier work
# CYP2C8 [15] = experiment: In vitro CYP induction; type: in vitro ADME
# CYP2C19 [16] = target: T3, CYP2C19 (Homo sapiens, UniProt P33261); experiment: In vitro metabolic pathways; type: in vitro ADME
# T3 sequence (P33261 whole entry): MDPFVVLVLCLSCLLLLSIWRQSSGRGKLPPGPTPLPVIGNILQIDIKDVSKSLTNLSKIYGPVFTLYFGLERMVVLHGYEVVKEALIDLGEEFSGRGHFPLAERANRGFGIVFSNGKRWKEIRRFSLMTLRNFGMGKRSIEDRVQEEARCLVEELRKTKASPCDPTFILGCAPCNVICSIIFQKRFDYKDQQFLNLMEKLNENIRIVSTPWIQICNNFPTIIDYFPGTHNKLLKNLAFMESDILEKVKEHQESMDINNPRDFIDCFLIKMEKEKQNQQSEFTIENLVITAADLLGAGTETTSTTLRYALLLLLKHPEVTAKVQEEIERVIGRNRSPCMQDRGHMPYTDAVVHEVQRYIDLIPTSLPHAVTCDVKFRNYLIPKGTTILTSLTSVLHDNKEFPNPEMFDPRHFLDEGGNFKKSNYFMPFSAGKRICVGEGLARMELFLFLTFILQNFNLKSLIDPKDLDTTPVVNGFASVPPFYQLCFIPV
# FLT-3 = FLT-3 (Homo sapiens, UniProt P36888); experiment: In vitro biochemical and/or cellular kinase assays
# RET = RET (Homo sapiens, UniProt P07949); experiment: In vitro biochemical and/or cellular kinase assays
# Chain of RET (P07949 29-1114): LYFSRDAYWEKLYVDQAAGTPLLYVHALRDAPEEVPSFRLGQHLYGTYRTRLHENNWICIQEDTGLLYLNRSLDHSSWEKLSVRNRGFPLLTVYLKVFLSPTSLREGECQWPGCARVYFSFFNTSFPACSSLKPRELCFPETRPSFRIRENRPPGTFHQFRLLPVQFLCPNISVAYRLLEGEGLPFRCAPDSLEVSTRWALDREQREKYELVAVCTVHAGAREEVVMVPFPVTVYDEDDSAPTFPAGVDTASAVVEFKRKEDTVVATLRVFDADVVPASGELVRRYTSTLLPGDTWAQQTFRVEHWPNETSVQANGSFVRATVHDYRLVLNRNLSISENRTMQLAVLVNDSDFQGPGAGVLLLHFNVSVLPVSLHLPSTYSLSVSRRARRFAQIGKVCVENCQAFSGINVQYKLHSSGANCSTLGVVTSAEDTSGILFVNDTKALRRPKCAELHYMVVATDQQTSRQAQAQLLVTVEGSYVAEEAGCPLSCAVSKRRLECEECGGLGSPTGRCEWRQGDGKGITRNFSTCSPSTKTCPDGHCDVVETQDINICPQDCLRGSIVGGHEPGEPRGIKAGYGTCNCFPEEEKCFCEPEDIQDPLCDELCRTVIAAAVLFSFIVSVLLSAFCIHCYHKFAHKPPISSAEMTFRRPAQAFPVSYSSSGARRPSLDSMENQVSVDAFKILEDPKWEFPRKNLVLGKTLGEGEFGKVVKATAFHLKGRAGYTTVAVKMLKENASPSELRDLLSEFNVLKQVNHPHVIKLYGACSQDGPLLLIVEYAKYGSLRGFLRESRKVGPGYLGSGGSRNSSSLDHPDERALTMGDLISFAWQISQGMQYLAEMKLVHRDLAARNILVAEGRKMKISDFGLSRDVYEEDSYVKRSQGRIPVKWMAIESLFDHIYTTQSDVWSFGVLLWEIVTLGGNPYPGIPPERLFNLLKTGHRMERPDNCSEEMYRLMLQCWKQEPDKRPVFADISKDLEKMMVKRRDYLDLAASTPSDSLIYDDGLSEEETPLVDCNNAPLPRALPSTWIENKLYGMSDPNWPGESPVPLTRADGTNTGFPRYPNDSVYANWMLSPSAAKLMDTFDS
# CYP2D6 = CYP2D6 (Homo sapiens, UniProt P10635); experiment: In vitro CYP inhibition; type: in vitro ADME
# CYP2A6 = CYP2A6 (Homo sapiens, UniProt P11509); experiment: In vitro metabolic pathways; type: in vitro ADME
# Chain of CYP2A6 (P11509 whole entry): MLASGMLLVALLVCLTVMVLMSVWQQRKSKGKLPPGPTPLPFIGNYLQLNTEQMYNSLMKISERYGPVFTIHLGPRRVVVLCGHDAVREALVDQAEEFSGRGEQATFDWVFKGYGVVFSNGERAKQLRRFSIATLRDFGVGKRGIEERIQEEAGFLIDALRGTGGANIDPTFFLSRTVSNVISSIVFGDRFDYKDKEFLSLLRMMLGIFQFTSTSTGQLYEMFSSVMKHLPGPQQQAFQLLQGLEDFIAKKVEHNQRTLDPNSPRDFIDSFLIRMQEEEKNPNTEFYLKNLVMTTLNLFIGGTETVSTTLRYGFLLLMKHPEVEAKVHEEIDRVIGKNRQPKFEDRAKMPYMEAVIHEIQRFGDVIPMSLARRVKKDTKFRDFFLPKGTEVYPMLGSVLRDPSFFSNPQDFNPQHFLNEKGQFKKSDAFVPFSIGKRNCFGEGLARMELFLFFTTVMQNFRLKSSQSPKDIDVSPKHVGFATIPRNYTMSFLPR
# CYP2C8 [17] = target: T4, CYP2C8 (Homo sapiens, UniProt P10632); experiment: In vitro CYP inhibition; type: in vitro ADME
# T4 sequence (P10632 whole entry): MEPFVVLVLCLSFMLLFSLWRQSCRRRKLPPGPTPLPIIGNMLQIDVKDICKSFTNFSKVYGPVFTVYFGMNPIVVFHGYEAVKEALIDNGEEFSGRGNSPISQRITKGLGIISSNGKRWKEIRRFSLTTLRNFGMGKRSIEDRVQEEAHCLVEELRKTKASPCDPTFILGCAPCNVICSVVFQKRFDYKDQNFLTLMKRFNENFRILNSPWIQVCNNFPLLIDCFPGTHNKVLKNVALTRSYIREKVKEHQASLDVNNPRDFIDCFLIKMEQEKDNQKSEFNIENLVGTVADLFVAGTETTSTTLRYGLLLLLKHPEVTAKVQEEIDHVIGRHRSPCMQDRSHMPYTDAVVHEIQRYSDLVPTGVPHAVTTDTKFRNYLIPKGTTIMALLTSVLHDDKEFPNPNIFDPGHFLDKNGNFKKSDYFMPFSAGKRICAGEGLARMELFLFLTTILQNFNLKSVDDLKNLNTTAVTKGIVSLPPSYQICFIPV
# VEGFR-3 = VEGFR-3 (Homo sapiens, UniProt P35916); experiment: In vitro biochemical and/or cellular kinase assays
# [18] = Clinical pharmacokinetics; type: in vivo, human
# CYP2C8 [19] = target: T4, CYP2C8; experiment: In vitro metabolic pathways; type: in vitro ADME
# CYP2C9 [20] = experiment: In vitro CYP induction; type: in vitro ADME
# CYP3A4 [21] = target: T2, CYP3A4; experiment: In vitro metabolic pathways; type: in vitro ADME
# CYP2C19 [22] = target: T3, CYP2C19; experiment: In vitro CYP inhibition; type: in vitro ADME
# MRP2 = MRP2 (Homo sapiens, UniProt Q92887); experiment: Drug transporter systems; type: in vitro ADME; settings: in vitro
# AXL = AXL (Homo sapiens, UniProt P30530); experiment: In vitro biochemical and/or cellular kinase assays
# pregnant rats = experiment: Embryo-fetal development study in pregnant rats; settings: daily oral, throughout organogenesis
# T1 sequence (P05177 whole entry): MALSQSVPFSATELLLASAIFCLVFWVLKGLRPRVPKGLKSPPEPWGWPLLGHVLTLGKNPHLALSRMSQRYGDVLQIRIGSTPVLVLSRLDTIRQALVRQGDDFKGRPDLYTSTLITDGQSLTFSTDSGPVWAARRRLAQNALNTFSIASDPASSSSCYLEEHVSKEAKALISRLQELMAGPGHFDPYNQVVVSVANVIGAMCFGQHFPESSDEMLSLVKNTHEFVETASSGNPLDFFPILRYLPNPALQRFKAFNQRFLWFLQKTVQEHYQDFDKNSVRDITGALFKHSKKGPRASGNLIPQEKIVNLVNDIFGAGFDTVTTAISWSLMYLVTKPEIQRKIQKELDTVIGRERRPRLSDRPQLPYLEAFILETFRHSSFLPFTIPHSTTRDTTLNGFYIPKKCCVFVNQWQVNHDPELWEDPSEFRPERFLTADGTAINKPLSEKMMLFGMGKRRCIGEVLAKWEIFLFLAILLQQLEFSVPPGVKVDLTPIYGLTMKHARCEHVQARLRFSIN
compound,measurement,setting,value
COc1cc2nccc(Oc3ccc(NC(=O)C4(C(=O)Nc5ccc(F)cc5)CC4)cc3)c2cc1OC [cabozantinib],Induction of CYP3A4,CYP3A4 [1],does not induce
same,Inhibition of CYP1A2,CYP1A2 [2],does not inhibit
same,Effect on CYP3A4 pathway,CYP3A4 [3],affected by cabozantinib in vitro
same,Induction of CYP2B6,CYP2B6,does not induce
same,Ovarian finding,female rats,ovarian necrosis
same,Unchanged cabozantinib as share of total radioactivity in feces,[4],43%
same,Effect of inhibition of CYP1A2 on metabolite formation,CYP1A2 [5],no effect
same,Median overall survival,[6],11.5 months
same,Median progression-free survival,[6],5.2 months
same,Tyrosine kinase activity of MER,MER,inhibits
same,Decrease of single-dose plasma exposure (AUC0-inf),CYP3A4 [7],77%
same,Tyrosine kinase activity of ROS1,ROS1,inhibits
same,Increase of single-dose plasma exposure (AUC0-inf),CYP3A4 [8],38%
same,"Doses without adverse maternal toxicity or effect on offspring survival, growth or postnatal development",[9],up to 0.3 mg/kg/day
same,Tyrosine kinase activity of TIE-2,TIE-2,inhibits
same,Induction of CYP2C19,CYP2C19 [10],does not induce
same,"Differences in mean plasma exposure among normal liver function, mild and moderate hepatic impairment",[11],no clinically significant differences
same,Patients with any postbaseline reduction in SOD as best response,[12]; ITT,47%
same,Patients with ≥30% reduction in SOD,[12]; ITT,8%
same,Patients with ≥50% postbaseline decrease in serum AFP,[12]; ITT,23%
same,Patients with ≥30% reduction in postbaseline SOD,[12]; baseline AFP <400 ng/mL,9%
same,Patients with ≥30% reduction in postbaseline SOD,[12]; baseline AFP ≥400 ng/mL,7%
same,Median TTP,[12]; in vivo,5.4 months
same,Effect on CYP2C9 pathway,CYP2C9 [13],affected by cabozantinib in vitro
same,Tumor growth,[14],inhibits tumor growth
same,Induction of CYP2C8,CYP2C8 [15],does not induce
same,Effect of inhibition of CYP2C19 on metabolite formation,CYP2C19 [16],no effect
same,Tyrosine kinase activity of FLT-3,FLT-3,inhibits
same,Tyrosine kinase activity of RET,RET,inhibits
same,Inhibition of CYP2D6,CYP2D6,does not inhibit
same,Effect of inhibition of CYP2A6 on metabolite formation,CYP2A6,no effect
same,Inhibition of CYP2C8,CYP2C8 [17],inhibitor
same,Tyrosine kinase activity of VEGFR-3,VEGFR-3,inhibits
same,Steady state achieved,[18]; 140 mg daily,≤ 15 days
same,Vd/F,"[18]; human, plasma, po, read-out: Oral volume of distribution (VZ/F)",~319 L
same,Tmax,"[18]; human, plasma, oral, read-out: Median time to peak plasma concentrations (Tmax)",3 to 4 h
same,Effect of inhibition of CYP2C8 on metabolite formation,CYP2C8 [19],no effect
same,Induction of CYP2C9,CYP2C9 [20],does not induce
same,CYP3A4 substrate status,CYP3A4 [21],substrate
same,Effect on CYP2C19 pathway,CYP2C19 [22],affected by cabozantinib in vitro
same,MRP2 substrate status,MRP2,substrate
same,Tyrosine kinase activity of AXL,AXL,inhibits
same,Dose with delayed ossification and skeletal variations,pregnant rats,0.01 mg/kg/day
